Measurements as given in patent US11472772B2, “S1P3 antagonists” (Teva Pharmaceutical Industries, Ltd., priority 2013, dated 2022).

Columns and labels:
Type in all cases: in vivo, rat
[1] = tested on: quisqualic acid lesioned rats; assay: Quisqualic acid (QUIS) injection in Nucleus Basalis Magnocellularis of rats: immunohistochemistry for neurodegeneration and neuroinflammation (ChAT, GFAP, OX42)
Description: (§1) The efficacy of the compounds of the invention on neurodegeneration and neuroinflammation can be evaluated with two different methodological approaches aimed to reproduce some pathological features of Alzheimer's disease: • 1) the excitotoxic insult (quisqualic acid—QUIS) in the Nucleus Basalis Magnocellularis (NBM), characterized by severe neurodegeneration of cholinergic neurons along with significant neuroinflammation. • 2) the β-amyloid peptide 25-35 (Aβ25-35) injection in NBM of rats, inducing a significant glia reaction around Aβ25-35 deposits with modest toxicity on cholinergic neurons. • Readouts are based on immunochemical analysis and are: count of cholinergic neurons (ChAT-positive), astrocytes (GFAP-positive) and microglia (OX-42 or Iba-1 positive). The analysis is performed by two different approaches, the visual scoring (blind) and the digital platform APERIO®.
(§2) Three-month old male Wistar rats (Harlan, Milan, Italy) weighing 230-250 g were used. The rats were housed in macrolon cages with ad lib food and water and maintained on a 12 h light/dark cycle at 23° C. room temperature (RT). All experiments were carried out according to the guidelines of the European Community's Council for Animal Experiments (86/609/EEC). Efforts were made to minimize the number of animals used and their suffering.
The quisqualic acid (Sigma Chemical Co., Milan, Italy; dissolved in phosphate buffer at the concentration of 0.12 M volume 0.5 μl) or 10 ug of ABeta(25-35) peptide (Bachem) dissolved PBS at the concentration of 10 μg/μl and aggregate at 37° for 2 h before injection volume 1 μl) was injected by means of an Hamilton microsyringe into the right NBM under chloral hydrate anaesthesia at the following stereotaxic coordinates: AP=−0.2, L=−2.8 from bregma and H=7 from the dura (Paxinos and Watson, 1982, Casamenti et al., 1998). Controlateral NBM were injected with PBS solution. The study was performed for 7 days after surgery. […]

[2] = tested on: Abeta(25-35) lesioned rats; assay: Abeta(25-35) peptide injection in NBM of rats: GFAP staining; conditions: 30 mg/kg, Kruskall-Wallis
Description: as §1
as §2, with “suffering. […]” for “suffering.”

[3] = tested on: quisqualic acid lesioned rats; assay: Object Recognition Test (ORT) on quisqualic acid lesioned rats; conditions: exploration time of familiar vs novel object
Protocol: QUIS-treated animals can also undergo the Object Recognition Test (ORT, measuring episodic memory) or other behavioural tests to measure the improvement of cognitive functions upon treatment with a compound of the invention.
as §2, with “suffering. […]” for “suffering.”
Object recognition was evaluated according to Ennanceur and Delacour (1988) and Scali et al., (1997). […] The times spent exploring the familiar (F) and the new object (N) were recorded separately and the difference between the two exploration times was taken. […]

CCCC(C(=O)Nc1cnc(Br)cn1)c1cncc(Br)c1 (stereo not drawn) [Example 33, 2-(5-Bromo-pyridin-3-yl)-pentanoic acid (5-bromo-pyrazin-2-yl)-amide]
Neuroprotective effect, rat NBM ChAT-positive neuron counts (APERIO) ([1]; 30 and 60 mg/Kg/day p.o., QUIS lesioned rats): strong neuroprotective effects
Anti-neuroinflammatory effect on astrocytes, GFAP reactivity ([1]; 30 and 60 mg/Kg/day, QUIS lesioned rats): strong activity on GFAP reactivity
Anti-neuroinflammatory and neuroprotective activity in the in vivo assays (FIGS. 1-3) ([1]; doses ranging 10 to 60 mg/kg): anti-neuroinflammatory and neuroprotective activity
GFAP-positive cells, quantitative analysis by visual scoring [2]: p<0.05 vs vehicle group
Cognitive functions in ORT (episodic memory) [3]: improved cognitive functions
Cognitive functions in ORT (episodic memory) ([3]; listed as example 33): significantly ameliorates cognitive functions
